This assay relates to adipose cells of rats. Put plainly: Evaluation of the sugar transporting capacity (2-[14C(U)]-deoxy-D-glucose incorporation). The class given is cell-based. The settings on record: insulin 100 nM; isolated rat adipose cells. As to the method:
After the decapitation and venesection of 6 male Wistar rats (body weight: 150 to 200 g), an incision was made in the abdomen of each rat to extract 6 g in total of epididymal adipose tissues. The tissues were finely cut into 2 mm×2 mm pieces in 6 ml of KRH (Krebs-Ringer Hepes, composition: 130 mM of sodium chloride, 4.7 mM of potassium chloride, 1.2 mM of potassium dihydrogenphosphate, 1.2 mM of magnesium sulfate, 1 mM of calcium chloride and 25 mM of Hepes, pH=7.6) containing 5% of BSA (bovine serum albumin). 24 mg of collagenase (type I) was added thereto and the digestion treatment was conducted for about 40 minutes to obtain about 6 ml of isolated adipose cells. The collagenase was removed by the buffer exchange. 2% BSA/KRH solution was added to the residue for the re-suspension to obtain 45 ml of an adipose cell suspension.
The sugar transporting capacity of the compound of the present invention was evaluated with reference to a method described in a literature [Annual Review of Biochemistry, Vol. 55, p. 1059 (1986)]. […]
The sugar transporting capacity was evaluated by measuring the quantity of 2-[^14C(U)]-deoxy-D-glucose incorporated per a unit time. […] The quantity of 2-[^14C(U)]-deoxy-D-glucose contained in the adipose cell layer was determined with a liquid scintillation counter to determine the quantity of the incorporated sugar. […]

On to insulin, for which the “effect of increasing the sugar-transporting capacity versus insulin-free control group” value is on record as “about 7 times”.

The values are drawn from patent publication US8299064B2, “Fused polycyclic compounds having a heterocyclic ring(s) and pharmaceutical use thereof” (priority 2003, dated 2012).
